Measured values from ChEMBL document CHEMBL1201862, “PubChem BioAssay data set” (2004).
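Results reflect a 48-hour exposure of cells in 96-well plates to compound at five concentrations. Abbreviation: GI50, concentration required for 50% inhibition of growth.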 Calls of active or inactive are those of the source. Rule as the data show it: active = GI50 up to about 1.1 µM and inactive = higher.

Legend:
Experiment in all cases: NCI anticancer screen, dose series, 48 h
Hs-578T = test system: Hs-578T
RXF 393 = test system: RXF 393
SNB-75 = test system: SNB-75
SW-620 = test system: SW-620
TK-10 = test system: TK-10
MDA-MB-435 = test system: MDA-MB-435
OVCAR-3 = test system: OVCAR-3
DU-145 = test system: DU-145
HCT-15 = test system: HCT-15
HCC 2998 = test system: HCC 2998
SF-268 = test system: SF-268
RPMI-8226 = test system: RPMI-8226
LOX IMVI = test system: LOX IMVI
HCT-116 = test system: HCT-116
K562 = test system: K562
NCI-H460 = test system: NCI-H460
A498 = test system: A498
NCI-H522 = test system: NCI-H522
A549 = test system: A549
SF-295 = test system: SF-295
SF-539 = test system: SF-539
SNB-19 = test system: SNB-19
SK-MEL-28 = test system: SK-MEL-28
UACC-62 = test system: UACC-62
T47D = test system: T47D
BT-549 = test system: BT-549
PC-3 = test system: PC-3
HOP-62 = test system: HOP-62
HOP-92 = test system: HOP-92
SK-OV-3 = test system: SK-OV-3
OVCAR-5 = test system: OVCAR-5
OVCAR-4 = test system: OVCAR-4
SK-MEL-5 = test system: SK-MEL-5
SK-MEL-2 = test system: SK-MEL-2
IGROV-1 = test system: IGROV-1
U-251 = test system: U-251
Malme-3M = test system: Malme-3M
786-0 = test system: 786-0
CAKI-1 = test system: CAKI-1
M14 = test system: M14
COLO 205 = test system: COLO 205
MOLT-4 = test system: MOLT-4
UACC-257 = test system: UACC-257
CCRF-CEM = test system: CCRF-CEM
NCI-H226 = test system: NCI-H226
NCI-H23 = test system: NCI-H23
KM12 = test system: KM12
SN12C = test system: SN12C
HT-29 = test system: HT-29
NCI/ADR-RES = test system: NCI/ADR-RES
OVCAR-8 = test system: OVCAR-8
ACHN = test system: ACHN
EKVX = test system: EKVX
MCF7 = test system: MCF7
MDA-N = test system: MDA-N
MDA-MB-231 = test system: MDA-MB-231
UO-31 = test system: UO-31
HL-60 = test system: HL-60

For `N/C(=N\O)N/N=C/c1cc(Br)cc(Br)c1O`, the GI50 (Hs-578T) was 26.9 µM (inactive), the GI50 (RXF 393) was 4.32 µM (inactive) and the GI50 (SNB-75) was 2.86 µM (inactive). For the same molecule, the GI50 (SW-620) was 8.95 µM (inactive), the GI50 (TK-10) was 5.35 µM (inactive) and the GI50 (MDA-MB-435) was 9.48 µM (inactive). The GI50 (OVCAR-3) was 2.37 µM (inactive), the GI50 (DU-145) was 3.19 µM (inactive) and the GI50 (HCT-15) was 0.67 µM. The GI50 (HCC 2998) was 6.53 µM (inactive), the GI50 (SF-268) was 1.75 µM (inactive) and the GI50 (RPMI-8226) was 2.61 µM (inactive). For the same molecule, the GI50 (LOX IMVI) was 2.35 µM (inactive), the GI50 (HCT-116) was 4.24 µM (inactive) and the GI50 (K562) was 2.65 µM (inactive). The GI50 (NCI-H460) was 3.32 µM (inactive), the GI50 (A498) was 3.96 µM (inactive) and the GI50 (NCI-H522) was 16.2 µM (inactive). The GI50 (A549) was 5.27 µM (inactive), the GI50 (SF-295) was 4.98 µM (inactive) and the GI50 (SF-539) was 4.49 µM (inactive). For the same molecule, the GI50 (SNB-19) was 7.11 µM (inactive), the GI50 (SK-MEL-28) was 8.73 µM (inactive) and the GI50 (UACC-62) was 1.46 µM (inactive). For the same molecule, the GI50 (T47D) was 1.75 µM (inactive), the GI50 (BT-549) was 2.44 µM (inactive) and the GI50 (PC-3) was 5.74 µM (inactive). The GI50 (HOP-62) was 4.21 µM (inactive), the GI50 (HOP-92) was 2.86 µM (inactive) and the GI50 (SK-OV-3) was 7.14 µM (inactive). For the same molecule, the GI50 (OVCAR-5) was 9.86 µM (inactive), the GI50 (OVCAR-4) was 4.23 µM (inactive) and the GI50 (SK-MEL-5) was 6.89 µM (inactive). For the same molecule, the GI50 (SK-MEL-2) was 8.04 µM (inactive), the GI50 (IGROV-1) was 0.507 µM (active) and the GI50 (U-251) was 2.78 µM (inactive). For the same molecule, the GI50 (Malme-3M) was 2.96 µM (inactive), the GI50 (786-0) was 1.91 µM (inactive) and the GI50 (CAKI-1) was 0.461 µM (active). For the same molecule, the GI50 (M14) was 2.43 µM (inactive), the GI50 (COLO 205) was 13 µM (inactive) and the GI50 (MOLT-4) was 1.12 µM (active). The GI50 (UACC-257) was 14 µM (inactive), the GI50 (CCRF-CEM) was 0.491 µM (active) and the GI50 (NCI-H226) was 1.29 µM (inactive). The GI50 (NCI-H23) was 7.06 µM (inactive), the GI50 (KM12) was 5.08 µM (inactive) and the GI50 (SN12C) was 1.86 µM (inactive). The GI50 (HT-29) was 11.4 µM (inactive), the GI50 (NCI/ADR-RES) was 1.08 µM (active) and the GI50 (OVCAR-8) was 2.37 µM (inactive). For the same molecule, the GI50 (ACHN) was 1.95 µM (inactive), the GI50 (EKVX) was 14.9 µM (inactive) and the GI50 (MCF7) was 6.21 µM (inactive). For the same molecule, the GI50 (MDA-N) was 10.8 µM (inactive), the GI50 (MDA-MB-231) was 4.6 µM (inactive) and the GI50 (UO-31) was 1.92 µM (inactive).

`COc1ccc(C2OC(N)=C(C#N)C3=C2CCCC3C)cc1OC` (centres undefined) was tested, and the GI50 (Hs-578T) was > 100 µM (inactive), the GI50 (RXF 393) was > 100 µM (inactive) and the GI50 (SNB-75) was 23.8 µM (inactive). The GI50 (SW-620) was > 100 µM (inactive), the GI50 (TK-10) was > 100 µM (inactive) and the GI50 (MDA-MB-435) was > 100 µM (inactive). The GI50 (OVCAR-3) was > 100 µM (inactive), the GI50 (DU-145) was > 100 µM (inactive) and the GI50 (HCT-15) was > 100 µM. For the same molecule, the GI50 (SF-268) was > 100 µM (inactive), the GI50 (RPMI-8226) was > 100 µM (inactive) and the GI50 (LOX IMVI) was > 100 µM (inactive). The GI50 (HCT-116) was > 100 µM (inactive), the GI50 (K562) was > 100 µM (inactive) and the GI50 (NCI-H460) was > 100 µM (inactive). The GI50 (A498) was > 100 µM (inactive), the GI50 (SF-295) was > 100 µM (inactive) and the GI50 (SF-539) was > 100 µM (inactive). For the same molecule, the GI50 (SNB-19) was > 100 µM (inactive), the GI50 (SK-MEL-28) was > 100 µM (inactive) and the GI50 (UACC-62) was > 100 µM (inactive). The GI50 (T47D) was > 100 µM (inactive), the GI50 (BT-549) was > 100 µM (inactive) and the GI50 (PC-3) was > 100 µM (inactive). For the same molecule, the GI50 (SK-OV-3) was > 100 µM (inactive), the GI50 (OVCAR-5) was > 100 µM (inactive) and the GI50 (HL-60) was > 100 µM (inactive). For the same molecule, the GI50 (SK-MEL-5) was > 100 µM (inactive), the GI50 (SK-MEL-2) was > 100 µM (inactive) and the GI50 (IGROV-1) was > 100 µM (inactive). For the same molecule, the GI50 (U-251) was > 100 µM (inactive), the GI50 (Malme-3M) was > 100 µM (inactive) and the GI50 (786-0) was > 100 µM (inactive). The GI50 (CAKI-1) was > 100 µM (inactive), the GI50 (M14) was > 100 µM (inactive) and the GI50 (COLO 205) was > 100 µM (inactive). For the same molecule, the GI50 (MOLT-4) was > 100 µM (inactive), the GI50 (UACC-257) was > 100 µM (inactive) and the GI50 (CCRF-CEM) was > 100 µM (inactive). The GI50 (NCI-H226) was > 100 µM (inactive), the GI50 (NCI-H23) was > 100 µM (inactive) and the GI50 (KM12) was > 100 µM (inactive). For the same molecule, the GI50 (SN12C) was > 100 µM (inactive), the GI50 (HT-29) was > 100 µM (inactive) and the GI50 (NCI/ADR-RES) was > 100 µM (inactive). For the same molecule, the GI50 (OVCAR-8) was > 100 µM (inactive), the GI50 (ACHN) was > 100 µM (inactive) and the GI50 (EKVX) was > 100 µM (inactive). For the same molecule, the GI50 (MCF7) was > 100 µM (inactive), the GI50 (MDA-N) was > 100 µM (inactive) and the GI50 (MDA-MB-231) was > 100 µM (inactive). The GI50 (UO-31) was > 100 µM (inactive).
